Assay results published in patent publication US8008298B2, “Pyrrolopyrazine kinase inhibitors” (Roche Palo Alto, priority 2008, dated 2011).

Row | Structure (SMILES) | melting point
1 | CC1(O)CCN(c2cccc(-c3cnc4[nH]cc(C(=O)C(C)(C)C)c4n3)c2)C1 (centres unmarked) [Example I-417, 1-{2-[3-(3-Hydroxy-3-methyl-pyrrolidin-1-yl)-phenyl]-5H-pyrrolo[2,3-b]pyrazin-7-yl}-2,2-dimethyl-propan-1-one] | 237 to 239 °C
2 | COc1cc(-c2cnc3[nH]cc(C(=O)O)c3n2)cc(OC)c1OC [Example I-490, 2-(3,4,5-Trimethoxy-phenyl)-5H-pyrrolo[2,3-b]pyrazine-7-carboxylic acid] | 237.8 to 238.4 °C
